Results on 26 compounds are retold here after US4644085A, “Rooperol and its derivates” (Rooperol (NA) NV, priority 1985, dated 1987).

Data set [1] concerns HUMAN CERVICAL CANCER HeLa ATCC No. CCL2. In words: Inhibition of cell growth: human cervical cancer HeLa. Format: cell-based. The note with it: 96 h, media, usually four days, read-out: MINIMUM INHIBITORY CONCENTRATIONS (RANGE) WHICH PRODUCE APPROXIMATELY 50% CELL GROWTH REDUCTION
How it is done:
(§1) The cell cultures were grown under standard conditions at 37° C. in Eagle's Minimal Essential Medium (M.E.M., Gibco), with glutamine and non-essential amino acids, supplemented with 10% foetal calf serum (State Vaccine Institute, Cape Town). Cells for subcultures were obtained from 90-100% confluent cell cultures by trypsinisation with Ca^++ Mg^++ --free EDTA-Dulbecco Buffer, containing 0.25% trypsin. Trypsin was inactivated by placing the harvested cell suspension into M.E.M. containing 10% foetal calf serum. The cell suspensions were then suitably diluted to the final volume, depending on the number of cells obtained and the growth profile of the cell type. The diluted cell suspensions were then dispensed at the rate of 1.0 ml into prepared cell culture flasks containing 8.9 ml culture media. These cultures were incubated for 24 hours and the media changed before adding the test compounds.
(§2) The test compounds were dissolved in dimethylsulphoxide (Merck) and added at the rate of 0.1 ml to the media in a dilution to give the desired end concentration.
(§3) In each series of experiments, control cultures were treated with equivalent amounts of solvent without the test compound. The cultures were examined daily usually for a period of four days and cell growth and other cytopathic effects were records. Abnormal cell patterns and sizes were also determined during counting.
(iv) HeLa Human Cervical Cancer

A further data set in a line: Acute toxicity in mice. The conditions noted are these: mouse, in vivo, po, P.O., single dose in vegetable oil, 7 days observation, read-out: MINIMUM TOLERATED SINGLE DOSE. The procedure: (§4) Some compounds were subjected to preliminary acute toxicity tests in mice and rats. Solutions or suspensions of the selected compounds were prepared in vegetable oil. The volumes administered were kept constant at 10.0 ml per kg. In each case equal numbers of male and female animals were treated with a single dose. All animals were observed over 7 days for signs of toxic and/or pharmacodynamic effects. Necropsies were performed on all surviving animals.

In a further data set the test system is MOUSE SARCOMA M(52)B. In words: Inhibition of cell growth: mouse sarcoma M(52)B. The data set is classed as cell-based. The conditions noted are these: 96 h, media, usually four days, read-out: MINIMUM INHIBITORY CONCENTRATIONS (RANGE) WHICH PRODUCE APPROXIMATELY 50% CELL GROWTH REDUCTION
How it is done:
as §1, §2, §3
(i) M (52) B Mouse Sarcoma

In the next data set the test system is HUMAN […] HOC. Briefly: Inhibition of cell growth: human oesophagal carcinoma HOC. The data set is classed as cell-based. The note with it: 96 h, read-out: MINIMUM INHIBITORY CONCENTRATIONS (RANGE) WHICH PRODUCE APPROXIMATELY 50% CELL GROWTH REDUCTION
How it is done: as §1, §2, §3
(iii) HOC Human Oesophagal Carcinoma

A further data set concerns P27-HUMAN MESOTHELIOMA
Briefly: Inhibition of cell growth: P27 human mesothelioma. The data set is classed as cell-based. The note with it: 96 h, media, usually four days, read-out: MINIMUM INHIBITORY CONCENTRATIONS (RANGE) WHICH PRODUCE APPROXIMATELY 50% CELL GROWTH REDUCTION
The procedure:
as §1, §2, §3
(v) P27 Human Mesothelioma Cells

A short description of a further data set: Acute toxicity in rats. The note with it: rat, in vivo, po, P.O., single dose in vegetable oil, 7 days observation, read-out: MINIMUM TOLERATED SINGLE DOSE. How it is done:
as §4

A further data set relates to CHANG CO[…] No. CCL20.2. Briefly: Inhibition of cell growth: Chang conjunctival. Format: cell-based. The conditions noted are these: 96 h, read-out: MINIMUM INHIBITORY CONCENTRATIONS (RANGE) WHICH PRODUCE APPROXIMATELY 50% CELL GROWTH REDUCTION
How it is done: as §1, §2, §3
(vii) Chang Chang Conjunctival cells

For data set [2], the system named is "LOOT'S" CELLS HUMAN ADENOCARCINOMA
Briefly: Inhibition of cell growth: "Loot's" cells human adenocarcinoma. Format: cell-based. The conditions noted are these: 96 h, media, usually four days, read-out: MINIMUM INHIBITORY CONCENTRATIONS (RANGE) WHICH PRODUCE APPROXIMATELY 50% CELL GROWTH REDUCTION
How it is done:
as §1, §2, §3
(vi) "Loots" cells Human Derived Adenocarcinoma

Another data set has as its system MOUSE MELANOMA B16-BL6. Briefly: Inhibition of cell growth: mouse melanoma B16-BL6. Format: cell-based. The conditions noted are these: 96 h, media, usually four days, read-out: MINIMUM INHIBITORY CONCENTRATIONS (RANGE) WHICH PRODUCE APPROXIMATELY 50% CELL GROWTH REDUCTION
How it is done: as §1, §2, §3
(ii) Mel B16 BL06 Mouse Melanoma

Another data set deals with cancer. The conditions noted are these: reported in EPO Patent Application No. 83103765.0; cited from earlier work.

Molecules are shown by their SMILES. ≈ marks a conversion by molar mass, not a printed value.

Take `C/C=C/C(O)C#CCOC1CCCCO1` (centres unmarked) [Product 21]: the IC50 in data set [1] was in the range of 25 to 50 µg/mL (≈ 119 to 238 µM).

As to `C(#Cc1ccccc1)CC1CO1` (centres unmarked) [Product 24], the IC50 in [1] is 25 to 50 µg/mL (≈ 158 to 316 µM).

As for `OC(CCl)CC#Cc1ccccc1` (centres unmarked) [Product 11], the IC50 in [1] was 25 to 50 µg/mL (≈ 128 to 257 µM). Also, the MTD at 168 h in “Acute toxicity in mice” is not below 1000 mg/kg.

`OC(C#Cc1ccccc1)C=C(Cl)c1ccccc1` (centres unmarked) [Product 19]: in [1], the IC50 fell in the range of 20 to 40 µg/mL (≈ 74.4 to 149 µM). Besides, the MTD at 168 h in “Acute toxicity in mice” is 250 mg/kg.

For the compound `C=CCC#CCOC1CCCCO1` (centres unmarked) [Product 13], in [1], the IC50 lay within 50 to 100 µg/mL (≈ 277 to 555 µM).

Take `Brc1ccc(C#CC/C=C/c2ccccc2)cc1` [Product 10]: in data set [1], the IC50 lay in the range of 25 to 50 µg/mL (≈ 84.1 to 168 µM).

On to `C(#Cc1ccccc1)C/C=C/c1ccccc1` [Product 3], for which the IC50 in the data set with MOUSE SARCOMA M(52)B lay in the range of 50 to 75 µg/mL (≈ 229 to 344 µM); in the data set on HUMAN […] HOC, 25 to 50 µg/mL (≈ 115 to 229 µM); in data set [1], 40 to 60 µg/mL (≈ 183 to 275 µM); in the data set on P27-HUMAN MESOTHELIOMA, 25 to 50 µg/mL (≈ 115 to 229 µM). The MTD at 168 h in the data set “Acute toxicity in mice” turned out to be 500 mg/kg; in the data set “Acute toxicity in rats”, 1500 mg/kg.

Take `OCC#CC/C=C/c1ccccc1` [Product 31]: in data set [1], the IC50 fell in the range of 25 to 50 µg/mL (≈ 145 to 290 µM).

On to `C=CC(=O)C#Cc1ccccc1` [Product 26], for which the IC50 was in the range of 20 to 40 µg/mL (≈ 128 to 256 µM) in data set [1] and 2.5 to 10 µg/mL (≈ 16 to 64 µM) in the data set on CHANG CO[…] No. CCL20.2.

Consider `COc1ccc(C#CC/C=C/c2ccc(OC)cc2)cc1` [Product 5], for which the IC50 in the data set with HUMAN […] HOC is not below 25 µg/mL.

Take `COc1ccc(C#CC(O)/C=C/c2ccco2)cc1OC` (centres unmarked) [Product 15]: the IC50 in data set [1] lay within 25 to 50 µg/mL (≈ 87.9 to 176 µM).

Consider `C=CCC#Cc1ccccc1` [Product 2], for which the IC50 was 50 to 100 µg/mL (≈ 352 to 703 µM) with HUMAN […] HOC and 50 to 75 µg/mL (≈ 352 to 527 µM) in data set [1]. The results for the MTD at 168 h in “Acute toxicity in mice” and in the data set “Acute toxicity in rats” were not below 1000 mg/kg and 500 mg/kg, respectively.

With `C=CCC#CCO` [Product 30], the IC50 in data set [1] stood at 50 µg/mL (≈ 520 µM).

Turning to `CCOC(=O)C(=Cc1ccccc1)CC#Cc1ccccc1` [Product 23], the IC50 in the data set on MOUSE SARCOMA M(52)B fell in the range of 75 to 100 µg/mL (≈ 258 to 344 µM); with HUMAN […] HOC it was 20 to 50 µg/mL (≈ 68.9 to 172 µM); in data set [1], 60 to 100 µg/mL (≈ 207 to 344 µM); in data set [2], 25 to 50 µg/mL (≈ 86.1 to 172 µM); in the data set on CHANG CO[…] No. CCL20.2, 25 to 75 µg/mL (≈ 86.1 to 258 µM). For the same compound, the MTD at 168 h in “Acute toxicity in mice” came to 750 mg/kg.

For the compound `COc1ccc(C#CC/C=C/c2ccc(OC)c(OC)c2)cc1OC` [Product 8], the IC50 with MOUSE SARCOMA M(52)B is 60 to 80 µg/mL (≈ 177 to 236 µM); in data set [1], 60 to 100 µg/mL (≈ 177 to 296 µM); with P27-HUMAN MESOTHELIOMA it was 40 to 60 µg/mL (≈ 118 to 177 µM).

As for `OC(C#Cc1ccccc1)/C=C/c1ccco1` (centres unmarked) [Product 17], the results for the IC50 (in [1]; in the data set on P27-HUMAN MESOTHELIOMA) were 20 to 25 µg/mL (≈ 89.2 to 111 µM) and 20 to 50 µg/mL (≈ 89.2 to 223 µM), respectively. In addition, the MTD at 168 h in “Acute toxicity in mice” and in the data set “Acute toxicity in rats” was 500 mg/kg in each case.

Take `C=CC(O)C#Cc1ccccc1` (centres unmarked) [Product 20]: the IC50 in data set [1] is 25 to 50 µg/mL (≈ 158 to 316 µM).

For the compound `O=C(C#Cc1ccccc1)/C=C/c1ccccc1` [Product 25], the values for the IC50 (in the data set on MOUSE MELANOMA B16-BL6; in data set [1]; with CHANG CO[…] No. CCL20.2) were 12.5 to 25 µg/mL (≈ 53.8 to 108 µM), 5 to 10 µg/mL (≈ 21.5 to 43.1 µM) and 2.5 to 10 µg/mL (≈ 10.8 to 43.1 µM), respectively.

With `OC(C#Cc1ccccc1)/C=C/c1ccccc1` (centres unmarked) [Product 16], the IC50 in the data set on MOUSE SARCOMA M(52)B is 20 to 40 µg/mL (≈ 85.4 to 171 µM); in the data set with MOUSE MELANOMA B16-BL6, 20 to 50 µg/mL (≈ 85.4 to 213 µM); in data set [1] it was 25 to 50 µg/mL (≈ 107 to 213 µM); in the data set on P27-HUMAN MESOTHELIOMA it was 25 to 50 µg/mL (≈ 107 to 213 µM); in data set [2] it was 12.5 to 25 µg/mL (≈ 53.4 to 107 µM). The MTD at 168 h in “Acute toxicity in mice” and in the data set “Acute toxicity in rats” was 500 mg/kg each time.

Regarding `COc1ccc(C#CC/C=C/c2ccccc2)cc1` [Product 6], the IC50 lay in the range of 10 to 20 µg/mL (≈ 40.3 to 80.5 µM) with HUMAN […] HOC and 60 to 100 µg/mL (≈ 242 to 403 µM) in [1].

`COc1ccc(C#CC/C=C/c2ccccc2)cc1OC` [Product 9]: the IC50 in data set [1] fell in the range of 60 to 100 µg/mL (≈ 216 to 359 µM).

For `COc1ccc(C#CC(O)/C=C/c2ccccc2)cc1OC` (centres unmarked) [Product 18], in data set [1], the IC50 lay within 25 to 50 µg/mL (≈ 84.9 to 170 µM).

Consider `C/C=C/C(O)C#CCO` (centres unmarked) [Product 29], for which the IC50 in data set [1] came out at 50 µg/mL (≈ 396 µM).

For the compound `C(#Cc1ccc2c(c1)OCO2)C/C=C/c1ccc2c(c1)OCO2` [Product 7], the IC50 with MOUSE SARCOMA M(52)B was 60 to 80 µg/mL (≈ 196 to 261 µM).

Regarding `OC[C@H]1O[C@@H](Oc2ccc(C#CC/C=C/c3ccc(O[C@@H]4O[C@H](CO)[C@@H](O)[C@H](O)[C@H]4O)c(O)c3)cc2O)[C@H](O)[C@@H](O)[C@@H]1O` [Hypoxoside, (E)-1,5-bis(3',4'-dihydroxyphenyl)pent-4-en-1-yne 4',4'-di-B-D-glucopyranoside], the anticancer activity entry in the data set on cancer is “has anticancer activity”.

With `Oc1ccc(C#CC/C=C/c2ccc(O)c(O)c2)cc1O` [Product 1, 3',3',4',4',-tetrahydroxyrooperol], the IC50 fell in the range of 12.5 to 25 µg/mL (≈ 44.3 to 88.6 µM) with MOUSE SARCOMA M(52)B; 10 to 25 µg/mL (≈ 35.4 to 88.6 µM) in the data set with MOUSE MELANOMA B16-BL6; 25 to 50 µg/mL (≈ 88.6 to 177 µM) with HUMAN […] HOC; 20 to 40 µg/mL (≈ 70.8 to 142 µM) in data set [1]; 10 to 25 µg/mL (≈ 35.4 to 88.6 µM) in the data set with P27-HUMAN MESOTHELIOMA; 12.5 to 25 µg/mL (≈ 44.3 to 88.6 µM) in data set [2]. Also, the IC50 in the data set with CHANG CO[…] No. CCL20.2 was in the range of 20 to 25 µg/mL (≈ 70.8 to 88.6 µM).
